What was measured:
[1] = target: T1, ABL2 (Homo sapiens, UniProt P42684); experiment: KINOMEscan competition binding; conditions: read-out: Percent Control
T1 construct: purchased KINOMEscan (panel service)
Summary of the method: (§1)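 Competition binding against an immobilized active-site-directed ligand; compound tested at 10 μM. Binding reported as % Ctrl, lower values meaning stronger interaction.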

[2] = target: VEGFR2 (Homo sapiens, UniProt P35968); experiment: KINOMEscan competition binding; conditions: VEGFR2 (Entrez KDR), read-out: Percent Control
Summary of the method: as §1

[3] = target: T2, MAP3K1 (Homo sapiens, UniProt Q13233); experiment: KINOMEscan competition binding; conditions: read-out: Percent Control
T2 construct: purchased KINOMEscan (screening platform)
Summary of the method: as §1

[4] = target: TIE2 (Homo sapiens, UniProt Q02763); experiment: KINOMEscan competition binding; conditions: TIE2 (Entrez TEK)
TIE2, sequence (Q02763 23-1124): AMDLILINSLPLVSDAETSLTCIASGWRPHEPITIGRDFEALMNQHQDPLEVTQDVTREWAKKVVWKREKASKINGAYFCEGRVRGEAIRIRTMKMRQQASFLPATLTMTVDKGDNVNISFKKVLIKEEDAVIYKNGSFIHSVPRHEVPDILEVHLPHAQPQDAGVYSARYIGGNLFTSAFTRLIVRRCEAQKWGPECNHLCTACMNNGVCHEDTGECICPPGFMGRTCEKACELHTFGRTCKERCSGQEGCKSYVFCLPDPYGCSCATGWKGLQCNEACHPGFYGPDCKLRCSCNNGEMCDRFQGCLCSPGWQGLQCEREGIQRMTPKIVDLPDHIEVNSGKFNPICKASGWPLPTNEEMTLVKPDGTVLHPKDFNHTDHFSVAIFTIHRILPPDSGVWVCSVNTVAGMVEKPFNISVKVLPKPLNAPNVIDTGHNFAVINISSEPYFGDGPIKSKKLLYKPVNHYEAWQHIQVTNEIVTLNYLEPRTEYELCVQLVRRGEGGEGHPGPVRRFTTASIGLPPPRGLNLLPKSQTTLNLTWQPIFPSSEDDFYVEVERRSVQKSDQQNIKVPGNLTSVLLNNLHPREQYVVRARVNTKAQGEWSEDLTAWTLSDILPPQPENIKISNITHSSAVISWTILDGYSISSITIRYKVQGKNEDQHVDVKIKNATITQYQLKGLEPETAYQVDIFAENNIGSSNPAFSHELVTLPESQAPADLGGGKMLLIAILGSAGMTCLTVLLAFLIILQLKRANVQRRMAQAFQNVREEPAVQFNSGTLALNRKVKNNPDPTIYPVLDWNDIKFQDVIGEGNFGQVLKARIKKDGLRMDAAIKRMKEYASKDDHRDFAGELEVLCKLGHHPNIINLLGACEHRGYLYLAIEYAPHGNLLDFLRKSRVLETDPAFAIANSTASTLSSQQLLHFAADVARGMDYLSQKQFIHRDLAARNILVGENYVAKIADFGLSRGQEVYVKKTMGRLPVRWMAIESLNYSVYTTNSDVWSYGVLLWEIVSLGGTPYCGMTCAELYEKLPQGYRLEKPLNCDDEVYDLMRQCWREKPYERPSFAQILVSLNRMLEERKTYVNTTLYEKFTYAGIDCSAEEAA
Summary of the method: as §1

[5] = target: KIT(V559D) (Homo sapiens, UniProt P10721, V559D); experiment: KINOMEscan competition binding; conditions: read-out: Percent Control
KIT(V559D), sequence (P10721 26-976 V559D): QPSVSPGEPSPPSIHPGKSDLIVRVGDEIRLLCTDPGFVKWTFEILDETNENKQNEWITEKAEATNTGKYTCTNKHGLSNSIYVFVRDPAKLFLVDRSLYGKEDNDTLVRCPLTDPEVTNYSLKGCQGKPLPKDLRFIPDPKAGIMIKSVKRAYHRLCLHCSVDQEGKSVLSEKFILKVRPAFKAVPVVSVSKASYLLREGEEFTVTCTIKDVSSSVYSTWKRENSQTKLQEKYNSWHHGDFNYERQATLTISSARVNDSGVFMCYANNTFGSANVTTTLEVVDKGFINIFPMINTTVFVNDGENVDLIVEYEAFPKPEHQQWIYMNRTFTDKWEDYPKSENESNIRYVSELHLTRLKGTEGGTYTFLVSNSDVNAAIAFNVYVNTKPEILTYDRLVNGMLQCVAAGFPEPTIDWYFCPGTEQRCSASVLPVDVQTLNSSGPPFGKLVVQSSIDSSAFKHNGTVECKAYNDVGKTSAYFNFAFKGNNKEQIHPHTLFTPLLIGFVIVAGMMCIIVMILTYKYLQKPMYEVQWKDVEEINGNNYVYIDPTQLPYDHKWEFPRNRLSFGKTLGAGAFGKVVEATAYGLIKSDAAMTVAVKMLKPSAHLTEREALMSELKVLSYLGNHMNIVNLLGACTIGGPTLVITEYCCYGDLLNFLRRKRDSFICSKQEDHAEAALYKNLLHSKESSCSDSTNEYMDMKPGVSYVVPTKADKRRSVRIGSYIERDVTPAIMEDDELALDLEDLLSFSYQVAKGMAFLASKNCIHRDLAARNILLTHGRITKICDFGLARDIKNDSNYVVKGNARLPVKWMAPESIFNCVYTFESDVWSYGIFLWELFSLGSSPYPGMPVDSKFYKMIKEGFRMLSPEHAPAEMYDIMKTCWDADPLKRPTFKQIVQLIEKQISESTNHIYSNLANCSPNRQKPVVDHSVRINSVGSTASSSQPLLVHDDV
Summary of the method: as §1

[6] = target: MEK4 (Homo sapiens, UniProt P45985); experiment: KINOMEscan competition binding; conditions: MEK4 (Entrez MAP2K4), read-out: Percent Control
MEK4, sequence (P45985 whole entry): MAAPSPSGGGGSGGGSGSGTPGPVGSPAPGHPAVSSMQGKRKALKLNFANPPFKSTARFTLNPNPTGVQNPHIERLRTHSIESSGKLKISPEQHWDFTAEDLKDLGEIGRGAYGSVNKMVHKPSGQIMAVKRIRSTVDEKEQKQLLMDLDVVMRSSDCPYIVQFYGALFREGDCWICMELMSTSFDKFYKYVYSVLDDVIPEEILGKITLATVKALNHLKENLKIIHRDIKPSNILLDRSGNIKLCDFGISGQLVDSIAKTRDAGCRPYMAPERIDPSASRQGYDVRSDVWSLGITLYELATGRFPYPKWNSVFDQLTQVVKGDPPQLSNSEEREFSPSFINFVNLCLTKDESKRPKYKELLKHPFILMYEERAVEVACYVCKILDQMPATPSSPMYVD
Summary of the method: as §1

[7] = target: ABL1(Q252H)-nonphosphorylated (Homo sapiens, UniProt P00519, Q252H); experiment: KINOMEscan competition binding; conditions: read-out: Percent Control
Summary of the method: as §1

[8] = target: SRMS (Homo sapiens, UniProt Q9H3Y6); experiment: KINOMEscan competition binding; conditions: read-out: Percent Control
Summary of the method: as §1

[9] = test system: FLT3(ITD); experiment: KINOMEscan competition binding; conditions: 10 μM
Summary of the method: as §1

[10] = target: MAP4K2 (Homo sapiens, UniProt Q12851); experiment: KINOMEscan competition binding; conditions: read-out: Percent Control
Summary of the method: as §1

[11] = target: T3, FGFR4 (Homo sapiens, UniProt P22455); experiment: KINOMEscan competition binding; conditions: read-out: Percent Control
T3 construct: purchased KINOMEscan (screening platform)
Summary of the method: as §1

[12] = target: SLK (Homo sapiens, UniProt Q9H2G2); experiment: KINOMEscan competition binding; conditions: read-out: Percent Control
Summary of the method: as §1

[13] = target: EPHB4 (Homo sapiens, UniProt P54760); experiment: KINOMEscan competition binding; conditions: read-out: Percent Control
Summary of the method: as §1

[14] = target: MEK5 (Homo sapiens, UniProt Q13163); experiment: KINOMEscan competition binding; conditions: MEK5 (Entrez MAP2K5), read-out: Percent Control
MEK5, sequence (Q13163 whole entry): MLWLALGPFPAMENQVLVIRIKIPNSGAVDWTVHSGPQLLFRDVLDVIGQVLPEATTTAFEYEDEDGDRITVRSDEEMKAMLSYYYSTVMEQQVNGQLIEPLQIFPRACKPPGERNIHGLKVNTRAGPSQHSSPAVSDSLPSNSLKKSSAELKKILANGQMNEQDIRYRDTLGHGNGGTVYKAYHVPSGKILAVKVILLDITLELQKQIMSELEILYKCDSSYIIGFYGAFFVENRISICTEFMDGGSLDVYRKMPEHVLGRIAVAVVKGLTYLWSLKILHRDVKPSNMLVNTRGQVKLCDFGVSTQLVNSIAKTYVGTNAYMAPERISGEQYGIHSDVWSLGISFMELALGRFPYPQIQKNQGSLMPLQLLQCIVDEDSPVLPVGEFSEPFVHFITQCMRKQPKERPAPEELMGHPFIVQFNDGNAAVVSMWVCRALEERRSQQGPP
Summary of the method: as §1

[15] = target: T4, EGFR (Homo sapiens, UniProt P00533); experiment: KINOMEscan competition binding; conditions: read-out: Percent Control
T4 construct: purchased KINOMEscan (panel service)
Summary of the method: as §1

[16] = target: MAP4K4 (Homo sapiens, UniProt O95819); experiment: KINOMEscan competition binding; conditions: read-out: Percent Control
MAP4K4, sequence (O95819 whole entry): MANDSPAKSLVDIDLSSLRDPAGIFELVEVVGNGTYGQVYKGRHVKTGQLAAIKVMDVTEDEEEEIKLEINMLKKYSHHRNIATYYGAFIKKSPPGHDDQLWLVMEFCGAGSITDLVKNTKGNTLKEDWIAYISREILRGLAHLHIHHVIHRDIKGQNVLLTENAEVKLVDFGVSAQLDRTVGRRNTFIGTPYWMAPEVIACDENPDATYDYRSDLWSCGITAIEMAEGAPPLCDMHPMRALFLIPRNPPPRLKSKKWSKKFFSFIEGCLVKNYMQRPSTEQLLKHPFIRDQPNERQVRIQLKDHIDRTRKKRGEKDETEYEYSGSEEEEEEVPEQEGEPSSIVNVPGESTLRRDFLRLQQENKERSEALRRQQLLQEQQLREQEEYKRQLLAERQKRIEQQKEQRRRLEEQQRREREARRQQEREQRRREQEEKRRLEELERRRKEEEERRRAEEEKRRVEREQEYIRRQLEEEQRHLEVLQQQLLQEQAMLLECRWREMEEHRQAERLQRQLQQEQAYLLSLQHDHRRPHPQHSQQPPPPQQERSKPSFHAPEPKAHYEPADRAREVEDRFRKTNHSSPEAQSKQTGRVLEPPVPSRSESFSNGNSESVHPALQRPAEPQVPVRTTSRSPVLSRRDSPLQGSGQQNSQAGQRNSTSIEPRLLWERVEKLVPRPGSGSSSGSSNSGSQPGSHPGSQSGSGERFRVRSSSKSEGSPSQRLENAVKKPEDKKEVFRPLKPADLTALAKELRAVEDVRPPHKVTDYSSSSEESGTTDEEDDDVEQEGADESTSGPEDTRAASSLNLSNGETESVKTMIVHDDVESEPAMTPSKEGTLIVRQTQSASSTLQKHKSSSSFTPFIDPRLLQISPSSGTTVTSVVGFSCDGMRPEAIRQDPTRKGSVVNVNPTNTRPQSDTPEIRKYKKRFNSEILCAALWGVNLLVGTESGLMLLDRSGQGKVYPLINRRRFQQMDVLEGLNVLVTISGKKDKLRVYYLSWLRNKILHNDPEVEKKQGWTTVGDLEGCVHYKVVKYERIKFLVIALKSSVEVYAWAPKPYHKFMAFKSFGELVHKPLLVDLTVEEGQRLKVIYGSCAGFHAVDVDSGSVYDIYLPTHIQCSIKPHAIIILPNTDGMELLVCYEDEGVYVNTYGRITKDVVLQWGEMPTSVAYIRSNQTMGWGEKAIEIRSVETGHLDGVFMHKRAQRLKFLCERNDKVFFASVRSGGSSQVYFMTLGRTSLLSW
Summary of the method: as §1

[17] = target: T5, TAOK3 (Homo sapiens, UniProt Q9H2K8); experiment: KINOMEscan competition binding; conditions: read-out: Percent Control
T5 construct: purchased KINOMEscan (screening platform)
T5 sequence (Q9H2K8 whole entry): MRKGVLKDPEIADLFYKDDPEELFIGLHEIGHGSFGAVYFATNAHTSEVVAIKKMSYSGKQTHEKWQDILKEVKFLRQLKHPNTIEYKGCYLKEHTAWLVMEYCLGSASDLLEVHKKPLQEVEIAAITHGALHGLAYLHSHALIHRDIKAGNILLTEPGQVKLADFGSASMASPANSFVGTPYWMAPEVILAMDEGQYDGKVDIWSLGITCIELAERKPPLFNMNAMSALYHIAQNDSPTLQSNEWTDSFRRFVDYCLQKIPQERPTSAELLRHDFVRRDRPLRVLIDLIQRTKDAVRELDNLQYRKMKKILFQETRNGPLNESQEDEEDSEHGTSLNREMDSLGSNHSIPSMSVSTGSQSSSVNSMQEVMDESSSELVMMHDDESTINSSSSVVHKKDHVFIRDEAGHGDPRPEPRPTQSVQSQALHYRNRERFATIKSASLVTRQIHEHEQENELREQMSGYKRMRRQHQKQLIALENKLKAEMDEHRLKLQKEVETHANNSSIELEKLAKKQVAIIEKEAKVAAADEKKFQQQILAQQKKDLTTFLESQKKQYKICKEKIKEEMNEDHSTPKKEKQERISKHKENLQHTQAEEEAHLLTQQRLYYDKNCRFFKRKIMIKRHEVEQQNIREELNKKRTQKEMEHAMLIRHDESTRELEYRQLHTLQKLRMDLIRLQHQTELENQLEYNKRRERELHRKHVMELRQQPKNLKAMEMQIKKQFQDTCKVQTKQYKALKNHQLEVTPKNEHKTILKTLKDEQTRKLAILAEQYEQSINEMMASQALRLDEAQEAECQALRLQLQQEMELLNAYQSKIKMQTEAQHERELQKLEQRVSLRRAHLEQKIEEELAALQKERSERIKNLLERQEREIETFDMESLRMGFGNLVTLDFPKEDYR
Summary of the method: as §1

[18] = target: KIT(L576P) (Homo sapiens, UniProt P10721, L576P); experiment: KINOMEscan competition binding; conditions: read-out: Percent Control
KIT(L576P), sequence (P10721 26-976 L576P): as the sequence (P10721 26-976 V559D) above, with D534V, L551P counted along it
Summary of the method: as §1

[19] = target: T6, MERTK (Homo sapiens, UniProt Q12866); experiment: KINOMEscan competition binding; conditions: read-out: Percent Control
T6 construct: purchased KINOMEscan (screening service)
Summary of the method: as §1

[20] = target: T7, ABL1(Y253F)-phosphorylated (Homo sapiens, UniProt P00519, Y253F); experiment: KINOMEscan competition binding; conditions: read-out: Percent Control
T7 construct: purchased KINOMEscan (panel service)
Summary of the method: as §1

[21] = target: MAP4K5 (Homo sapiens, UniProt Q9Y4K4); experiment: KINOMEscan competition binding; conditions: read-out: Percent Control
Summary of the method: as §1

[22] = target: T8, BaF3-EML4-ALK (Homo sapiens, UniProt Q9UM73); experiment: Antiproliferative activity, kinase-dependent Ba/F3 cells (MTT/MTS); assay type: cell-based, murine; conditions: 48 hours, cell viability, read-out: EML4-ALK IC50
T8 construct: fused on or other part: Q9HC35 (Echinoderm microtubule-associated protein-like 4)
Summary of the method: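 Murine Ba/F3 cells transformed with the indicated TEL- or EML4-fusion kinases, seeded at 20,000 cells/well in RPMI/10% FCS. Viability by MTT/MTS; IC50 as concentration reducing viability to 50% of DMSO vehicle control.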

[23] = test system: SK-MEL-5, SK-MEL-28, and SK-MEL-30 cell lines; experiment: Melanoma cell proliferation; assay type: cell-based; conditions: SK-MEL-5, SK-MEL-28 (B-Raf V600E), SK-MEL-30 (N-Ras Q61K); FIG. 3
Description: The ability of IA-9 to treat melanoma was tested using the SK-MEL-5, SK-MEL-28, and SK-MEL-30 cell lines. SK-MEL-5 and SK-MEL-28 express mutant B-Raf (V600E) and wildtype N-Ras. SK-MEL-30 expresses wildtype B-Raf and mutant N-Ras (Q61K). Cell proliferation was tested using methods described herein.

`Cc1ccc(Nc2ncc3c(n2)N(C)CN(c2cc(NC(=O)c4cccc(C(F)(F)F)c4)ccc2C)C3)cn1` [IA-9, N-(4-methyl-3-(1-methyl-7-((6-methylpyridin-3-yl)amino)-1,4-dihydropyrimido[4,5-d]pyrimidin-3(2H)-yl)phenyl)-3-(trifluoromethyl)benzamide] gave a remaining binding at 10 µM [1] of 0.1%, a remaining binding at 10 µM [2] of 2% and a remaining binding at 10 µM [3] of 29%. It also gave a percent of control binding at 10 µM [4] of 0.45%, a remaining binding at 10 µM [5] of 0% and a remaining binding at 10 µM [6] of 2%. The remaining binding at 10 µM [7] was 0.75%, the remaining binding at 10 µM [8] was 0.95% and the “Percent Control” value [9] was 0.55 % Ctrl. The remaining binding at 10 µM [10] was 4.6%, the remaining binding at 10 µM [11] was 25% and the remaining binding at 10 µM [12] was 6.1%. It also gave a remaining binding at 10 µM [13] of 0%, a remaining binding at 10 µM [14] of 0.3% and a remaining binding at 10 µM [15] of 0.05%. It also gave a remaining binding at 10 µM [16] of 0.6%, a remaining binding at 10 µM [17] of 29% and a remaining binding at 10 µM [18] of 1.2%. For the same compound, the remaining binding at 10 µM [19] was 7%, the remaining binding at 10 µM [20] was 0.15% and the remaining binding at 10 µM [21] was 2.5%. For the same compound, the GI50 [22] was 1470 nM and the “reduction of proliferation of melanoma cells” value [23] was “reduce the proliferation of melanoma cells”.
